Earlier results in patent publication US20240285640A1, “COMBINATION THERAPY FOR TREATING PIK3CA-MUTATED CANCER” (ADLAI NORTYE BIOPHARMA CO., LTD., priority 2020, published 2024).

What was measured:
[1] = system: immunosuppressive cells in the tumor microenvironment; settings: preclinical studies; by inhibiting the PGE2/EP-4 signaling pathway
colorectal cancer = settings: combined with radiotherapy and chemotherapy; Wyrwicz et al., ESMO2019
advanced solid tumors = settings: phase I FIH, a variety of advanced solid tumors
[2] = system: breast cancer caused by PI3K/PIK3CA mutations; settings: patients; Campone M et al. 2018

Compound	reduction of immunosuppressive cells in the tumor microenvironment [1]	clinical efficacy (colorectal cancer)	clinical effect as single drug (advanced solid tumors)	clinical efficacy [2]
C[C@H](NC(=O)c1c(C(F)F)nn(C)c1Oc1cccc(C(F)(F)F)c1)c1ccc(C(=O)O)cc1 [AN0025]	effectively reduce	strong clinical efficacy	certain single-drug effect	–
Nc1cc(C(F)(F)F)c(-c2cc(N3CCOCC3)nc(N3CCOCC3)n2)cn1 [AN2025, Buparlisib]	–	–	–	effective
